Assay: mn = molality of the nth substance listed, in mol/kg
Conditions: 100 kPa, Liquid; for speed of sound: Frequency=3 MHz, Sing-around technique in a fixed-path interferometer; for mass density: Vibrating tube method

CCCCCCCC[N+]1(C)CCOCC1.O=S(=O)([N-]S(=O)(=O)C(F)(F)F)C(F)(F)F + C[S+](C)[O-]
Conditions | mass density, 298.15 K [kg/m3] | mass density, 303.15 K [kg/m3] | mass density, 308.15 K [kg/m3] | mass density, 313.15 K [kg/m3] | mass density, 318.15 K [kg/m3] | speed of sound, 298.15 K [m/s] | speed of sound, 303.15 K [m/s] | speed of sound, 308.15 K [m/s] | speed of sound, 313.15 K [m/s] | speed of sound, 318.15 K [m/s]
m1 = 0.0104 | 1096.19 | 1091.17 | 1086.16 | 1081.14 | 1076.13 | 1483.5 | 1466.6 | 1449.8 | 1433 | 1416.5
m1 = 0.01752 | 1096.81 | 1091.79 | 1086.78 | 1081.77 | 1076.76 | 1482.7 | 1465.8 | 1449 | 1432.3 | 1415.8
m1 = 0.0266 | 1097.59 | 1092.58 | 1087.57 | 1082.56 | 1077.56 | 1481.7 | 1464.8 | 1448.1 | 1431.4 | 1414.9
m1 = 0.03779 | 1098.55 | 1093.54 | 1088.53 | 1083.53 | 1078.53 | 1480.5 | 1463.7 | 1446.9 | 1430.2 | 1413.8
m1 = 0.04989 | 1099.57 | 1094.57 | 1089.57 | 1084.57 | 1079.57 | 1479.2 | 1462.4 | 1445.7 | 1429 | 1412.6
m1 = 0.06889 | 1101.17 | 1096.17 | 1091.17 | 1086.18 | 1081.19 | 1477.2 | 1460.4 | 1443.7 | 1427.1 | 1410.8
m1 = 0.08629 | 1102.6 | 1097.62 | 1092.62 | 1087.64 | 1082.65 | 1475.3 | 1458.6 | 1441.9 | 1425.4 | 1409.1
m1 = 0.1068 | 1104.29 | 1099.3 | 1094.32 | 1089.34 | 1084.36 | 1473.2 | 1456.5 | 1439.9 | 1423.4 | 1407.1
m1 = 0.1403 | 1106.96 | 1101.99 | 1097.02 | 1092.04 | 1087.08 | 1469.8 | 1453.1 | 1436.6 | 1420.2 | 1404
m1 = 0.1703 | 1109.31 | 1104.34 | 1099.38 | 1094.41 | 1089.45 | 1466.8 | 1450.2 | 1433.8 | 1417.4 | 1401.2

CCCC[N+]1(C)CCOCC1.O=S(=O)([N-]S(=O)(=O)C(F)(F)F)C(F)(F)F + C[S+](C)[O-]
Conditions | mass density, 298.15 K [kg/m3] | mass density, 303.15 K [kg/m3] | mass density, 308.15 K [kg/m3] | mass density, 313.15 K [kg/m3] | mass density, 318.15 K [kg/m3] | speed of sound, 298.15 K [m/s] | speed of sound, 303.15 K [m/s] | speed of sound, 308.15 K [m/s] | speed of sound, 313.15 K [m/s] | speed of sound, 318.15 K [m/s]
m1 = 0.01276 | 1096.62 | 1091.6 | 1086.58 | 1081.57 | 1076.55 | 1483.5 | 1466.6 | 1449.8 | 1433.1 | 1416.5
m1 = 0.01778 | 1097.14 | 1092.12 | 1087.11 | 1082.09 | 1077.08 | 1483 | 1466.2 | 1449.3 | 1432.6 | 1416.1
m1 = 0.02681 | 1098.08 | 1093.06 | 1088.05 | 1083.03 | 1078.02 | 1482.2 | 1465.4 | 1448.6 | 1431.9 | 1415.4
m1 = 0.04025 | 1099.46 | 1094.44 | 1089.43 | 1084.42 | 1079.41 | 1481 | 1464.2 | 1447.5 | 1430.8 | 1414.3
m1 = 0.05498 | 1100.96 | 1095.95 | 1090.94 | 1085.93 | 1080.93 | 1479.7 | 1462.9 | 1446.2 | 1429.6 | 1413.1
m1 = 0.06956 | 1102.43 | 1097.42 | 1092.42 | 1087.41 | 1082.41 | 1478.5 | 1461.7 | 1445 | 1428.4 | 1412
m1 = 0.08753 | 1104.23 | 1099.22 | 1094.22 | 1089.22 | 1084.22 | 1476.9 | 1460.1 | 1443.5 | 1426.9 | 1410.6
m1 = 0.1103 | 1106.47 | 1101.47 | 1096.47 | 1091.48 | 1086.48 | 1475 | 1458.2 | 1441.6 | 1425.1 | 1408.8
m1 = 0.1334 | 1108.73 | 1103.73 | 1098.73 | 1093.74 | 1088.75 | 1472.9 | 1456.3 | 1439.7 | 1423.3 | 1407
m1 = 0.1687 | 1112.1 | 1107.11 | 1102.12 | 1097.13 | 1092.14 | 1470 | 1453.4 | 1436.9 | 1420.5 | 1404.4

CC[N+]1(C)CCOCC1.O=S(=O)([N-]S(=O)(=O)C(F)(F)F)C(F)(F)F + C[S+](C)[O-]
Conditions | mass density, 298.15 K [kg/m3] | mass density, 303.15 K [kg/m3] | mass density, 308.15 K [kg/m3] | mass density, 313.15 K [kg/m3] | mass density, 318.15 K [kg/m3] | speed of sound, 298.15 K [m/s] | speed of sound, 303.15 K [m/s] | speed of sound, 308.15 K [m/s] | speed of sound, 313.15 K [m/s] | speed of sound, 318.15 K [m/s]
m1 = 0.01623 | 1097.17 | 1092.15 | 1087.13 | 1082.12 | 1077.11 | 1483.4 | 1466.5 | 1449.7 | 1433 | 1416.4
m1 = 0.02434 | 1098.11 | 1093.09 | 1088.07 | 1083.06 | 1078.05 | 1482.8 | 1465.9 | 1449.1 | 1432.4 | 1415.9
m1 = 0.03937 | 1099.83 | 1094.82 | 1089.8 | 1084.79 | 1079.78 | 1481.6 | 1464.8 | 1448 | 1431.3 | 1414.9
m1 = 0.04917 | 1100.95 | 1095.93 | 1090.92 | 1085.91 | 1080.9 | 1480.9 | 1464 | 1447.3 | 1430.7 | 1414.2
m1 = 0.063 | 1102.51 | 1097.5 | 1092.49 | 1087.48 | 1082.47 | 1479.8 | 1463 | 1446.3 | 1429.7 | 1413.3
m1 = 0.07874 | 1104.28 | 1099.27 | 1094.26 | 1089.26 | 1084.25 | 1478.6 | 1461.8 | 1445.2 | 1428.6 | 1412.2
m1 = 0.09932 | 1106.57 | 1101.56 | 1096.55 | 1091.55 | 1086.55 | 1477 | 1460.3 | 1443.7 | 1427.2 | 1410.8
m1 = 0.1197 | 1108.8 | 1103.8 | 1098.79 | 1093.79 | 1088.79 | 1475.5 | 1458.8 | 1442.3 | 1425.8 | 1409.5
m1 = 0.1515 | 1112.25 | 1107.24 | 1102.24 | 1097.25 | 1092.25 | 1473.2 | 1456.5 | 1440 | 1423.6 | 1407.4

— the NIST ThermoML archive (doi:10.1016/j.jct.2015.04.006)
